Tests used:
Conditions in all cases: exposure time: 72 h
E28 [1] = patient-derived glioblastoma stem cells of classical subtype; test: surviving fraction (nuclei count normalised to DMSO); higher = more cells surviving (less toxic)
E13 [2] = patient-derived glioblastoma stem cells of classical subtype; test: as above
E31 [3] = patient-derived glioblastoma stem cells of proneural subtype; test: as above
E21 [4] = patient-derived glioblastoma stem cells of mesenchymal subtype; test: as above
FT3469 [5] = normal neural stem cell line; test: as above
E34 [6] = patient-derived glioblastoma stem cells of proneural subtype; test: as above
E57 [7] = patient-derived glioblastoma stem cells of mesenchymal subtype; test: as above
E28 [8] = test: phenotypic distance (Euclidean, principal components) from DMSO controls (arbitrary units); higher = stronger morphological change
E13 [9] = test: as above
E31 [10] = test: as above
E21 [11] = test: as above
FT3469 [12] = test: as above
E34 [13] = test: as above
E57 [14] = test: as above
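Wherever phenotypic distance (Euclidean, principal components) from DMSO controls is given: cell Painting imaging in 384-well plates, CellProfiler features reduced to at least 20 principal components, Euclidean distance versus same-plate DMSO vehicle wells (0.1% v/v), median over six images per well.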
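Wherever surviving fraction (nuclei count normalised to DMSO) is given: nuclei counted by high-content imaging of Hoechst-stained cells in laminin-coated 384-well plates, relative to 0.1% DMSO vehicle wells, with staurosporine as cell-death control.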

Nc1ccn([C@H]2CC[C@@H](CO)O2)c(=O)n1 [Zalcitabine]
Conditions	phenotypic distance	surviving fraction
E13 [2], 4.1 nM	–	0.88
E13 [2], 12.3 nM	–	1.02
E13 [2], 37 nM	–	1.01
E13 [2], 111.1 nM	–	0.953
E13 [2], 333.3 nM	–	0.94
E13 [2], 1000 nM	–	1.01
E13 [2], 3000 nM	–	0.913
E13 [9], 4.1 nM	0.723	–
E13 [9], 12.3 nM	0.719	–
E13 [9], 37 nM	0.578	–
E13 [9], 111.1 nM	0.722	–
E13 [9], 333.3 nM	0.483	–
E13 [9], 1000 nM	0.498	–
E13 [9], 3000 nM	0.729	–
E21 [4], 4.1 nM	–	0.917
E21 [4], 12.3 nM	–	0.894
E21 [4], 37 nM	–	1.08
E21 [4], 111.1 nM	–	0.99
E21 [4], 333.3 nM	–	0.9
E21 [4], 1000 nM	–	0.987
E21 [4], 3000 nM	–	0.979
E21 [11], 4.1 nM	0.578	–
E21 [11], 12.3 nM	0.976	–
E21 [11], 37 nM	0.36	–
E21 [11], 111.1 nM	0.783	–
E21 [11], 333.3 nM	0.577	–
E21 [11], 1000 nM	0.331	–
E21 [11], 3000 nM	0.684	–
E28 [1], 4.1 nM	–	1.04
E28 [1], 12.3 nM	–	1.04
E28 [1], 37 nM	–	0.97
E28 [1], 111.1 nM	–	1.13
E28 [1], 333.3 nM	–	1.01
E28 [1], 1000 nM	–	1.12
E28 [1], 3000 nM	–	0.87
E28 [8], 4.1 nM	0.369	–
E28 [8], 12.3 nM	0.351	–
E28 [8], 37 nM	0.756	–
E28 [8], 111.1 nM	0.552	–
E28 [8], 333.3 nM	0.598	–
E28 [8], 1000 nM	0.381	–
E28 [8], 3000 nM	0.783	–
E31 [3], 4.1 nM	–	0.933
E31 [3], 12.3 nM	–	1.11
E31 [3], 37 nM	–	0.978
E31 [3], 111.1 nM	–	1.13
E31 [3], 333.3 nM	–	0.919
E31 [3], 1000 nM	–	0.885
E31 [3], 3000 nM	–	0.972
E31 [10], 4.1 nM	0.62	–
E31 [10], 12.3 nM	0.852	–
E31 [10], 37 nM	0.398	–
E31 [10], 111.1 nM	0.47	–
E31 [10], 333.3 nM	0.46	–
E31 [10], 1000 nM	0.667	–
E31 [10], 3000 nM	0.528	–
E34 [6], 4.1 nM	–	0.869
E34 [6], 12.3 nM	–	0.954
E34 [6], 37 nM	–	1.05
E34 [6], 111.1 nM	–	0.887
E34 [6], 333.3 nM	–	0.896
E34 [6], 1000 nM	–	0.977
E34 [6], 3000 nM	–	0.802
E34 [13], 4.1 nM	0.915	–
E34 [13], 12.3 nM	0.593	–
E34 [13], 37 nM	0.379	–
E34 [13], 111.1 nM	0.902	–
E34 [13], 333.3 nM	1.02	–
E34 [13], 1000 nM	0.999	–
E34 [13], 3000 nM	0.863	–
E57 [7], 4.1 nM	–	1.06
E57 [7], 12.3 nM	–	0.945
E57 [7], 37 nM	–	0.991
E57 [7], 111.1 nM	–	1.09
E57 [7], 333.3 nM	–	0.982
E57 [7], 1000 nM	–	1.02
E57 [7], 3000 nM	–	1.05
E57 [14], 4.1 nM	1.83	–
E57 [14], 12.3 nM	0.448	–
E57 [14], 37 nM	0.547	–
E57 [14], 111.1 nM	0.703	–
E57 [14], 333.3 nM	0.624	–
E57 [14], 1000 nM	0.55	–
E57 [14], 3000 nM	0.703	–
FT3469 [5], 4.1 nM	–	1.11
FT3469 [5], 12.3 nM	–	1.03
FT3469 [5], 37 nM	–	0.953
FT3469 [5], 111.1 nM	–	1.1
FT3469 [5], 333.3 nM	–	1.02
FT3469 [5], 1000 nM	–	1.11
FT3469 [5], 3000 nM	–	0.989
FT3469 [12], 4.1 nM	3.61	–
FT3469 [12], 12.3 nM	0.392	–
FT3469 [12], 37 nM	0.547	–
FT3469 [12], 111.1 nM	0.849	–
FT3469 [12], 333.3 nM	0.603	–
FT3469 [12], 1000 nM	0.632	–
FT3469 [12], 3000 nM	0.569	–
